Key:
Neutrophil elastase [1] = biological target: T1, Neutrophil elastase (Homo sapiens, UniProt P08246); assay: Inhibitory concentration against human neutrophil elastase (HNE); No inhibition
T1 sequence (P08246 whole entry): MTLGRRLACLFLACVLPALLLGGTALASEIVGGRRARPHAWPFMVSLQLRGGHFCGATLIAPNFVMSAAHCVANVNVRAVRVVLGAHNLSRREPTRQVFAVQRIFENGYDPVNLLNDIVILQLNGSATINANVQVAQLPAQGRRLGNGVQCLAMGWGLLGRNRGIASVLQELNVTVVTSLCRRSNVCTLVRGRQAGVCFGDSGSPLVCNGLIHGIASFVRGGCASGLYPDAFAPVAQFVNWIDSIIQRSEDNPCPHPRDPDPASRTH

[2] = biological target: T2, Chymotrypsin-like elastase family member 2A (Sus scrofa, UniProt P08419); assay: Inhibitory concentration against porcine pancreatic elastase (PPE); No inhibition
T2 sequence (P08419 whole entry): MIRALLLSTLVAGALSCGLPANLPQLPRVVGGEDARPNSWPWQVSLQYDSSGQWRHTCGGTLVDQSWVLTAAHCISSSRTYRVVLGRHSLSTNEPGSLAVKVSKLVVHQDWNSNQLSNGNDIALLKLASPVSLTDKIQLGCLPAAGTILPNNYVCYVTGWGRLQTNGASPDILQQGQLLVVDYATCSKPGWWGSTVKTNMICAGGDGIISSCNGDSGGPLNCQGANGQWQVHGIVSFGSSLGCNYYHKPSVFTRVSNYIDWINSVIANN

Neutrophil elastase [3] = biological target: T1, Neutrophil elastase; assay: Inhibitory concentration against human neutrophil elastase (HNE)

| SMILES | IC50 (Neutrophil elastase [1]) | IC50 [2] | IC50 (Neutrophil elastase [3]) [µM] |
| --- | --- | --- | --- |
| CC(C)C[C@H]1C(=O)NCCN1C(=O)OC(C)(C)C | Not Active | Not Active |  |
| CCC(C)[C@H]1C(=O)N(Cc2ccccc2)CCN1S(=O)(=O)c1ccc(C)cc1 (stereo partly specified) | Not Active |  |  |
| CCC(C)[C@@H]1NCCNC1=O (stereo partly specified) | Not Active | Not Active |  |
| CCC(C)[C@H]1C(=O)N(S(=O)(=O)c2ccc(C)cc2)CCN1S(=O)(=O)c1ccc(C)cc1 (stereo partly specified) | Not Active | Not Active |  |

Further lines, results first:

| IC50 (Neutrophil elastase [1]) | IC50 [2] | IC50 (Neutrophil elastase [3]) [µM] | SMILES |
| --- | --- | --- | --- |
| Not Active | Not Active |  | CCC(C)[C@@H]1NCCN(Cc2ccccc2)C1=O (stereo partly specified) |
| Not Active | Not Active |  | CC(C)C[C@@H]1NCCN(Cc2ccccc2)C1=O |
| Not Active | Not Active |  | CCC(C)[C@H]1C(=O)NCCN1C(=O)OC(C)(C)C (stereo partly specified) |
| Not Active | Not Active |  | CC(C)C[C@@H]1NCCNC1=O |
|  |  | 28 | Cc1ccc(S(=O)(=O)N2CCN(Cc3ccccc3)C(=O)[C@@H]2CC(C)C)cc1 |

Reference: ChEMBL document CHEMBL1136514, “Synthesis and evaluation of delta-lactams (piperazones) as elastase inhibitors” (Bioorg Med Chem Lett, 2003)
